Source: publication PMC9863764, “Roles of Human Liver Cytochrome P450 Enzymes in Tenatoprazole Metabolism” (Pharmaceutics, 2022)
Values joined by “and” are separate entries in the source; they are usually repeats but may differ in a detail not shown here. Equal values may be shown once.

What was measured:
[1] = molecular target: T1, human CYP2C19 (Homo sapiens, UniProt P33261); parameters: method as in earlier work; conditions: in vitro; cited from earlier work
T1 construct: made in house; host or cells: Escherichia coli (membrane fractions)

[2] = molecular target: T2, human CYP3A4 (Homo sapiens, UniProt P08684); test: Sulfoxidation of tenatoprazole sulfide by recombinant CYP3A4 (chiral chromatography); format: in vitro ADME; conditions: substrate tenatoprazole sulfide, recombinant CYP3A4, chiral chromatography; label = product formed
T2 construct: made in house; host or cells: Escherichia coli (membrane fractions)
Protocol: The sulfoxidation reaction of tenatoprazole sulfide by CYP3A4 was measured by chiral chromatography. […] The reaction was initiated by adding NGS at 37 °C. […] After the residues were solubilized in 180 μL mobile phase, 30 μL samples were injected onto a Chiralpak AD column (4.6 × 150 mm, 10 μm; Daicel Corporation, Osaka, Japan) with a hexane-ethanol mixture (30:70, v/v) as the mobile phase. The products formed were analyzed by HPLC at […]. […] The kinetic parameters (kcat and Km) were determined by using a Michaelis-Menten nonlinear regression analysis with GraphPad Prism (GraphPad Software, San Diego, CA, USA).

[3] = parameters: method as in PMID 27640009; conditions: neutral pH; cited from earlier work
[4] = molecular target: T1, human CYP2C19; test: Steady-state kinetics of tenatoprazole oxidation by recombinant CYP2C19; format: in vitro ADME
Protocol: Pooled liver microsomes from human samples were obtained from ThermoFisher Scientific (Waltham, MA, USA). […] Membrane fractions expressing both P450 and CPR of E. coli were prepared as described previously and were used for the catalytic activity assays. […] The reaction was started by adding NGS and the incubation was continued for the indicated time at 37 °C. Incubation was then stopped by adding ice-chilled ethyl acetate (0.50 mL) and omeprazole (IS) was added to a final concentration of 20 μM. […] Phenomenex, Torrance, CA, USA). The products formed were analyzed by HPLC at […]. […] The kinetic parameters (kcat and Km) were determined by using a Michaelis-Menten nonlinear regression analysis with GraphPad Prism (GraphPad Software, San Diego, CA, USA).

[5] = parameters: method as in PMID 23205582; conditions: compared with other PPIs such as lansoprazole and omeprazole; cited from earlier work
[6] = test system: human liver microsomes (HLMs); test: Time course of oxidation of tenatoprazole and tenatoprazole sulfide by human liver microsomes (HPLC); format: in vitro ADME; conditions: for tenatoprazole remained: substrate tenatoprazole 500 μM
Protocol: A racemate of tenatoprazole was used in this work because the chiral tenatoprazoles currently are not commercially available. The reactions using HLMs contained incubation at 37 °C in 0.25 mL mixtures containing P450 (0.5 mg protein/mL) in 100 mM potassium phosphate buffer (pH 7.4), an NADPH-generating system (NGS, final concentration of 10 mM glucose-6-phosphate, 0.50 mM NADP^+, 1.0 IU yeast glucose-6-phosphate dehydrogenase per mL), and 0.1 mM of tenatoprazole or tenatoprazole sulfide. Incubations generally were performed for 2 h in the presence or absence of the NGS. Tenatoprazole and its metabolites were extracted twice using cold ethyl acetate as an organic solvent. Then centrifugation (1000× g, 20 min) was done to separate the organic layer from the aqueous layer. Omeprazole was added to this solution as an internal standard (IS) at a final 20 μM concentration. The organic layer was concentrated under nitrogen gas stream. The dried residues were then dissolved in the mobile phase (180 μL) and 30 μL was injected onto the column.
High-performance liquid chromatography (HPLC) was performed on the basis of a previously developed method for tenatoprazole and its metabolites, as described elsewhere. The analytical column was a Gemini C18 column (4.6 × 150 mm, 5 μm; Phenomenex), and the HPLC mobile phase consisted of acetonitrile and 5 mM potassium phosphate buffer (pH 7.3) (25:75, v/v). The substrate and its metabolites were detected at A302. The HPLC profile of the authentic compounds (i.e., tenatoprazole and its metabolites) were measured to compare to identify the major metabolites of tenatoprazole and tenatoprazole sulfide produced by HLMs.
The time course of the oxidation of tenatoprazole and tenatoprazole sulfide by HLMs (0.5 mg protein/mL) was analyzed to the estimated yield of metabolites and percentage of each metabolite using 0.60 mM substrate in 0.25 mL of 0.10 M potassium phosphate buffer (pH 7.4). After NGS was added to initiate the reaction, the samples were incubated for the designated time (i.e., 2, 5, 10, and 30 min, and 1, 2, 4, 8, 12, and 24 h) at 37 °C. Product formation was quantified using HPLC analysis, as mentioned above.
Calibration standard curves of tenatoprazole were made using a blank control sample (a reaction mixture without substrate and IS) and 12 samples containing tenatoprazole and omeprazole (IS) covering the concentration ranges of 1–500 μM, as described previously. The peak area ratio of tenatoprazole to IS was linear with respect to the analyte concentration over the range of 1–500 μM. The metabolites were quantified by comparing the peak areas of each metabolite to the mean peak areas of the IS (20 μM omeprazole).

[7] = molecular target: T3, CYP2E1 (Homo sapiens, UniProt P05181); test: Tenatoprazole oxidation by recombinant CYP2E1; format: in vitro ADME; conditions: substrate tenatoprazole 0.10 mM, 0.20 μM CYP2E1; no apparent formation
T3 construct: made in house; host or cells: Escherichia coli (membrane fractions)
Protocol: (§1) Pooled liver microsomes from human samples were obtained from ThermoFisher Scientific (Waltham, MA, USA). Recombinant human P450s were heterologously expressed in Escherichia coli with a pCW vector containing human P450 cDNA (CYP 3A4, 2C9, 2C19, 1A2, 1B1, 2E1, 2D6, and 2A6) and rat NADPH-P450 reductase (CPR). Membrane fractions expressing both P450 and CPR of E. coli were prepared as described previously and were used for the catalytic activity assays.
(§2) The reaction mixture included 0.20 μM P450, 0.40 μM CPR, and tenatoprazole (0.10 mM) in 0.25 mL of 0.10 M potassium phosphate buffer (pH 7.4). The reaction was started by adding NGS and the incubation was continued for the indicated time at 37 °C. Incubation was then stopped by adding ice-chilled ethyl acetate (0.50 mL) and omeprazole (IS) was added to a final concentration of 20 μM. The mixtures were vortexed for 2 min, centrifuged at 1000× g for 20 min, and then the organic layer was taken for drying under nitrogen gas stream. The residues were dissolved in 180 μL of HPLC mobile phase and 30 μL was injected onto a Gemini C18 column (4.6 × 150 mm, 5 μm; Phenomenex, Torrance, CA, USA). The products formed were analyzed by HPLC at A302. The HPLC profile of the authentic chemicals (i.e., tenatoprazole, tenatoprazole sulfide, and their metabolites) were used to identify the major metabolites of tenatoprazole and tenatoprazole sulfide produced by the recombinant P450s.
(§3) Figure S6. HPLC analyses of the products derived from the oxidation of tenatoprazole catalyzed by recombinant human P450s. The reaction mixture included 0.20 μM P450, 0.40 μM CPR, and 0.10 mM tenatoprazole in 0.25 mL of potassium phosphate buffer (0.10 M, pH 7.4). The reaction was started by adding an NGS at 37 °C for 60 min. (A) CYP1A2; (B) CYP1B1; (C) CYP2A6; (D) CYP2C9; (E) CYP2D6; (F) CYP2E1. The arrows with solid and broken lines indicate the retention times of 5’-OH tenatoprazole (6.6 min) and 5’-OH tenatoprazole sulfide (8.4 min), respectively.
(§4) (1 picture or pasted object on this page, not shown here)

[8] = molecular target: T4, CYP2C9 (Homo sapiens, UniProt P11712); test: Tenatoprazole oxidation by recombinant CYP2C9; format: in vitro ADME; conditions: substrate tenatoprazole 0.10 mM, 0.20 μM CYP2C9
T4 construct: made in house; host or cells: Escherichia coli (membrane fractions)
Protocol: as §1
as §2, with “The HPLC profile of the authentic chemicals (i.e., tenatoprazole, tenatoprazole sulfide, and their metabolites) were used to identify the major metabolites of tenatoprazole and tenatoprazole sulfide produced by the recombinant P450s.” left out

[9] = molecular target: T5, CYP1A2 (Homo sapiens, UniProt P05177); test: Tenatoprazole oxidation by recombinant CYP1A2; format: in vitro ADME; conditions: substrate tenatoprazole 0.10 mM, 0.20 μM CYP1A2; no apparent formation
T5 construct: made in house; host or cells: Escherichia coli (membrane fractions)
T5 sequence (P05177 1-516): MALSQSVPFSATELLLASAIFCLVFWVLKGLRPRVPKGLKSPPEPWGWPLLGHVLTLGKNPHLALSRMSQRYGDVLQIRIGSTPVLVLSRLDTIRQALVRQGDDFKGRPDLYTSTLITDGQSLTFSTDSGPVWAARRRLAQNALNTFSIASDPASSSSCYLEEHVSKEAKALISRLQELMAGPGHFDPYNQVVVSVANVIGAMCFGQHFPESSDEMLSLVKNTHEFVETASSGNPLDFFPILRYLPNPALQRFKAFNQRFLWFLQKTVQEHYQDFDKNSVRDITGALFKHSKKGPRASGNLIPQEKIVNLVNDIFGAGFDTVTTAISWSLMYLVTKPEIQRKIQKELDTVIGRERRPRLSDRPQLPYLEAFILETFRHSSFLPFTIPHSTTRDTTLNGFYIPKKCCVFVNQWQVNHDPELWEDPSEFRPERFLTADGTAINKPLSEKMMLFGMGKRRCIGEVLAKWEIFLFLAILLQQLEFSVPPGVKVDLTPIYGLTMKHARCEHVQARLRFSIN
Protocol: as §1, §2, §3, §4

[10] = molecular target: T6, CYP2A6 (Homo sapiens, UniProt P11509); test: Tenatoprazole oxidation by recombinant CYP2A6; format: in vitro ADME; conditions: substrate tenatoprazole 0.10 mM, 0.20 μM CYP2A6; no apparent formation
T6 construct: made in house; host or cells: Escherichia coli (membrane fractions)
T6 sequence (P11509 1-494): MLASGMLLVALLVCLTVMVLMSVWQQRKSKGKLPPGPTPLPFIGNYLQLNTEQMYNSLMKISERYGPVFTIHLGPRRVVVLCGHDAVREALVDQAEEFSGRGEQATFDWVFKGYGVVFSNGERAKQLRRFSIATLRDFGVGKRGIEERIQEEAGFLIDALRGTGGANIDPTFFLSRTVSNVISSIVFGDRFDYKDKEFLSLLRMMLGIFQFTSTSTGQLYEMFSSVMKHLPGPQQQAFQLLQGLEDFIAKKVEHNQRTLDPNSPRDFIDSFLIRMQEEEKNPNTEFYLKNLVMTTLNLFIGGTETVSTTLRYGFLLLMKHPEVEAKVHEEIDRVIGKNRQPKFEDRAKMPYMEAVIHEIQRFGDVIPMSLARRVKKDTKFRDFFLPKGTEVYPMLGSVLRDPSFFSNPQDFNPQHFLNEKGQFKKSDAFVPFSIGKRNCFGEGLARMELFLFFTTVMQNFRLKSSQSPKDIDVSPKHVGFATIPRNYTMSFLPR
Protocol: as §1, §2, §3, §4

[11] = molecular target: T7, CYP2D6 (Homo sapiens, UniProt P10635); test: Tenatoprazole oxidation by recombinant CYP2D6; format: in vitro ADME; conditions: substrate tenatoprazole 0.10 mM, 0.20 μM CYP2D6
T7 construct: made in house; host or cells: Escherichia coli (membrane fractions)
Protocol: as §1
as §2, with “The HPLC profile of the authentic chemicals (i.e., tenatoprazole, tenatoprazole sulfide, and their metabolites) were used to identify the major metabolites of tenatoprazole and tenatoprazole sulfide produced by the recombinant P450s.” left out

[12] = molecular target: T8, CYP1B1 (Homo sapiens, UniProt Q16678); test: Tenatoprazole oxidation by recombinant CYP1B1; format: in vitro ADME; conditions: substrate tenatoprazole 0.10 mM, 0.20 μM CYP1B1; no apparent formation
T8 construct: made in house; host or cells: Escherichia coli (membrane fractions)
T8 sequence (Q16678 1-543): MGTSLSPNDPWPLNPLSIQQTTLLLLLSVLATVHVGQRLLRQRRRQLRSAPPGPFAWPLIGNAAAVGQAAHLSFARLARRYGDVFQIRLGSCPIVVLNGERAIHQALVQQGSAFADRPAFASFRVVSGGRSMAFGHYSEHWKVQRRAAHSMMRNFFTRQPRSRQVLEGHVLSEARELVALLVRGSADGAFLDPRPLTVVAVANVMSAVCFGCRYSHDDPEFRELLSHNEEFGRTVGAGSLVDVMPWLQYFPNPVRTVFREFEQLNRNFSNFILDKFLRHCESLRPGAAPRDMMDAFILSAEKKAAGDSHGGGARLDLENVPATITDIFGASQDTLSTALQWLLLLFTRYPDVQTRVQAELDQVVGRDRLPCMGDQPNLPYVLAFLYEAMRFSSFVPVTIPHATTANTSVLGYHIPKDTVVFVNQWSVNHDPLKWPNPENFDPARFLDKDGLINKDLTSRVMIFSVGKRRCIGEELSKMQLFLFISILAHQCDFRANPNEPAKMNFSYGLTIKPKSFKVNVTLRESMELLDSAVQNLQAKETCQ
Protocol: as §1, §2, §3, §4

T1 sequence (P33261 whole entry): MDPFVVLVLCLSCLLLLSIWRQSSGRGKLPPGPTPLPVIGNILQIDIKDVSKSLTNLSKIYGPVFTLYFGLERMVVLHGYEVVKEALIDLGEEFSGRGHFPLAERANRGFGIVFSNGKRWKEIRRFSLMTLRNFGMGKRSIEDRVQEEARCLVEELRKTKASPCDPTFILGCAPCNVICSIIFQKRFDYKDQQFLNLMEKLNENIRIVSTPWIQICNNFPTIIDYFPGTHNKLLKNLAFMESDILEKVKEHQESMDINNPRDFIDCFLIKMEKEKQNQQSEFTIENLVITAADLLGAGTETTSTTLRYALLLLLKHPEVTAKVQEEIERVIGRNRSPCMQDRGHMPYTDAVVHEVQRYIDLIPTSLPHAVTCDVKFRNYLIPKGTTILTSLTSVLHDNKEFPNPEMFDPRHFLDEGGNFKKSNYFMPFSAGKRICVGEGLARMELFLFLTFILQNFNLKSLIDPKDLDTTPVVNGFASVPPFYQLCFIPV
T2 sequence (P08684 whole entry): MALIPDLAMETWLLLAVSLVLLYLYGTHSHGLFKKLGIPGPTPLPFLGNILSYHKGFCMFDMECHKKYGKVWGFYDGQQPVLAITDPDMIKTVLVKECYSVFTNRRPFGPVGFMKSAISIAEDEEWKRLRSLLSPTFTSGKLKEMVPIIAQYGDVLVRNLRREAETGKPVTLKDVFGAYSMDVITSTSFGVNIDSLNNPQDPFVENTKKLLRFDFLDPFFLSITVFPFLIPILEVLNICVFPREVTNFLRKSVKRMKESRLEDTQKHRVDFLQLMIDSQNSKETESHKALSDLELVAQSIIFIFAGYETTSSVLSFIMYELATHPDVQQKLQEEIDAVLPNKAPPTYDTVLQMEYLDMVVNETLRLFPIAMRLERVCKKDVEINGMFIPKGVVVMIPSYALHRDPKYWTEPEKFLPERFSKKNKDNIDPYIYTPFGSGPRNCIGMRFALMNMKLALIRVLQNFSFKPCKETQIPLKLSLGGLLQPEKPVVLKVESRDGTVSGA
T7 sequence (P10635 whole entry): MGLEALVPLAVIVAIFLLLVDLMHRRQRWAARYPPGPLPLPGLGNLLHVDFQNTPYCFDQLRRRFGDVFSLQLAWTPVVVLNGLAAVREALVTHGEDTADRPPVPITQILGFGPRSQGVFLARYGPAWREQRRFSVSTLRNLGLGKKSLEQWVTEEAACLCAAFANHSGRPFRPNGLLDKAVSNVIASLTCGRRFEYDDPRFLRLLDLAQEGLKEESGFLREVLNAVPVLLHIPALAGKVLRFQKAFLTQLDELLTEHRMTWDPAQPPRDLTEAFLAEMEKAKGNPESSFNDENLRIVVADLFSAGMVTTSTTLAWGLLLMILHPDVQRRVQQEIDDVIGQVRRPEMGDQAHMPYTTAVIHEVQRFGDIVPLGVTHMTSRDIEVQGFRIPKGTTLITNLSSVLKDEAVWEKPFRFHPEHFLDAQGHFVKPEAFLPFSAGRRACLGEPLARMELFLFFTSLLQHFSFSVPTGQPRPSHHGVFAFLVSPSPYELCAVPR
T3 sequence (P05181 whole entry): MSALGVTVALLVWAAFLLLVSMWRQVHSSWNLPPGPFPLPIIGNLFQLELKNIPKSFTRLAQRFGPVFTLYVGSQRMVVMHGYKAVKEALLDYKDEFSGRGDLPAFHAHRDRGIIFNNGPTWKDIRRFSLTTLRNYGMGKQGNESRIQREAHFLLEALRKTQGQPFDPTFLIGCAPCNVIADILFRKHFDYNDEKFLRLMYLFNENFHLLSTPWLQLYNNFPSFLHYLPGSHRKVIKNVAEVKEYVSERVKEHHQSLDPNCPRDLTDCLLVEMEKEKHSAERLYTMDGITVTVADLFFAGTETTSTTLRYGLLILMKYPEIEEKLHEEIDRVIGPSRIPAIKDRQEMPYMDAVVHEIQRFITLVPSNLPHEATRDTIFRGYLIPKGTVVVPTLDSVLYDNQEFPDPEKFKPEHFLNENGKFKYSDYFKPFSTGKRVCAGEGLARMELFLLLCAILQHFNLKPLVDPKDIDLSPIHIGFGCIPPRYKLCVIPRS
T4 sequence (P11712 whole entry): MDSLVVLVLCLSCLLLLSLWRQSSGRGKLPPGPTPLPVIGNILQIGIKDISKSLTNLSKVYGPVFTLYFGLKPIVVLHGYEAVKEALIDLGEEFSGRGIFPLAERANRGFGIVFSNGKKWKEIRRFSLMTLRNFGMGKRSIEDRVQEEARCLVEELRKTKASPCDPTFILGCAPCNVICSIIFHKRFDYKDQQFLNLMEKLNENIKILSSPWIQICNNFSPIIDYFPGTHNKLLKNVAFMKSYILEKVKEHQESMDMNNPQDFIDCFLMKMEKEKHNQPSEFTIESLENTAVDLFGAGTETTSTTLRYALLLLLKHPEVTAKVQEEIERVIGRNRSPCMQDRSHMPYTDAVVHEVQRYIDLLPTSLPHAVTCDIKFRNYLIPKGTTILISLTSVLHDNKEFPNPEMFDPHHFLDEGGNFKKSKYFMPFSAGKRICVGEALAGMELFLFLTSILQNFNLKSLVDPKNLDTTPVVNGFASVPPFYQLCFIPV

Structure (SMILES): COc1ccc2[nH]c([S@@+]([O-])Cc3ncc(C)c(OC)c3C)nc2n1 [S-tenatoprazole]
- rate of metabolism of S-isomer relative to R-isomer [1]: around seven times more slowly
- kcat of product formation [2]: 0.045 s⁻¹ and 0.045 ± 0.0033 s⁻¹

Structure (SMILES): COc1ccc2[nH]c([S+]([O-])Cc3ncc(C)c(OC)c3C)nc2c1 (stereo not drawn) [omeprazole, Omeprazole]
- spontaneous or nonenzymatic degradation to omeprazole sulfide [3]: not spontaneously or nonenzymatically degraded

Structure (SMILES): COc1ccc2[nH]c([S+]([O-])Cc3ncc(C)c(OC)c3C)nc2n1 (stereo not drawn) [tenatoprazole, Tenatoprazole]
- sulfoxidation of tenatoprazole by CYP2C19 ([4]; recombinant CYP2C19, substrate tenatoprazole): did not catalyze
- plasma half-life, times longer than those of other PPI drugs [5]: ~7 times
- tenatoprazole remained ([6]; HLM reaction mixture without NADPH, after 12 h): 4.4%
- tenatoprazole remained ([6]; HLMs, presence of NADPH, 12 h of incubation, 37 °C): 1.0%
- product formed from tenatoprazole sulfide (% of substrate) ([6]; substrate tenatoprazole sulfide 500 μM, HLMs, presence of NADPH, after 12 h): 0.49%

Structure (SMILES): COc1ccc2[nH]c(SCc3ncc(CO)c(OC)c3C)nc2n1 [5′-OH tenatoprazole sulfide]
- kcat of product formation ([4]; substrate tenatoprazole (1–500 μM), recombinant CYP2C19 0.20 μM, 37 °C, 5 min, label = product formed): 0.0333 s⁻¹ and 0.0333 ± 0.0017 s⁻¹
- formation rate of metabolite [7]: < 0.05 nmol product/min/nmol P450
- formation rate of metabolite [8]: 0.1 min⁻¹
- formation rate of metabolite [9]: < 0.05 nmol product/min/nmol P450
- formation rate of metabolite [10]: < 0.05 nmol product/min/nmol P450
- formation rate of metabolite [11]: 0.3 min⁻¹
- formation rate of metabolite [12]: < 0.05 nmol product/min/nmol P450
